{"source": "paper PMC4763988", "about": "“Activating peptides for cellular uptake via polymerization into high density brushes” (Chemical Science, 2015)", "key": {"cells": {"system": "cells", "conditions": "cited from earlier work"}, "HeLa cells [1]": {"system": "HeLa cells"}, "[2]": {"test": "Aggregation in DPBS by dynamic light scattering", "format": "physicochemical", "conditions": "for diameter by DLS: dissolved in DPBS, 10 x the concentration used in uptake studies, correlates to unimers", "description": "(§1) and dried. In preparation for in vitro cell studies, all polymers were washed (3×) with cold ether (to remove the Ru catalyst) and then dissolved in DPBS and dialyzed in dialysis cups with a molecular weight cut-off value of 3500 (Thermo Scientific, cat. # 69552) in an effort to remove any residual monomer or catalyst.\n(§2) We also sought to determine whether our block copolymers (i.e., GSGSGRR60-b-OEG20 and derivatives) formed larger aggregate structures in aqueous solution. To this end, we characterized three polymers GSGSGRR m ~ 60, GSGSGKK m ~ 60 and GSGSG m ~ 60 dissolved in DPBS by standard dynamic light scattering (DLS) and […] electron microscopy (TEM) analyses, which we perform routinely in other work to characterize nano-and micron-scale polymer assemblies. […]\nquench here with IV. deprotection\n(§3) Figure S5. Polymerization scheme for the preparation of GSGSG peptide polymers and analogues. Peptide polymers for this series are prepared via ROMP as block copolymers with an accessory OEG block to ensure aqueous solubility of all GSGSG analogues. Each peptide block is polymerized to m ~ 8, 15, 30, and 60. The OEG block is kept constant at a DP of ~ 20. The living polymer can be terminated with ethyl vinyl ether after completion of the peptide block to gain accurate molecular weights (Mn), dispersity (Mw/Mn) and degree of polymerization (DP). […]"}, "[3]": {"test": "Aggregation in DPBS by TEM", "format": "physicochemical", "conditions": "dissolved in DPBS, 10 x the concentration used in uptake studies", "description": "as §1, §2, §3"}, "HeLa cells [4]": {"system": "HeLa cells", "remark": "listed apart in the source"}, "trypsin": {"target": "trypsin (Sus scrofa, UniProt P00761)", "sequence (P00761 9-231)": "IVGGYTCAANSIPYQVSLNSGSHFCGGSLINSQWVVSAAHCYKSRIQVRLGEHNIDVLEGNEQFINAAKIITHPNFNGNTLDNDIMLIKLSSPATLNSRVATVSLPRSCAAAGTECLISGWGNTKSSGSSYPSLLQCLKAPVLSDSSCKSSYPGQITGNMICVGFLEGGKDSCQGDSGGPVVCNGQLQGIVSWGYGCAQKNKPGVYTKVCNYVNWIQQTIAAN", "conditions": "50 µM with respect to peptide, protease 1 µM (Fig. S25 for KLA: 10 µM), 3 hrs in DPBS, heat denatured 65 °C 15 m, RP-HPLC with standard curve"}, "[5]": {"system": "pronase (protease cocktail)", "conditions": "50 µM with respect to peptide, protease 1 µM (Fig. S25 for KLA: 10 µM), 3 hrs in DPBS, heat denatured 65 °C 15 m, RP-HPLC with standard curve"}, "HeLa cells [6]": {"system": "HeLa cells", "test": "Propidium iodide cell staining assay for necrotic cells", "format": "cell-based", "conditions": "flow cytometry PI channel; for Propidium iodide staining, shift of cell population (in words): KLA m ~ 10 5 hr, staurosporine 1 µM 24 hrs", "quoted_text": "Apoptosis and necrosis assays. Apoptotic and necrotic cells were identified using the CFTM488A Annexin V\nstains necrotic cells. For these studies, HeLa cells were plated at a density of 420,000 cells per well of a 6-well\nplate 18 hrs prior to treatment. KLA, m ~ 10, was dissolved in DPBS to a concentration of 2000 µM, where\nconcentration is with respect to peptide and no fluorophore is present. Staurosporin, a small molecule that is\nknown to cause apoptosis, was dissolved at 1000× (desired concentration on cells is 1 µM) in DMSO.\nStaurosporin and the vehicle control were added to the wells 24 hrs prior to analysis, and KLA (m ~ 10) and 10%\nDMSO control were added 5 hr prior to analysis. After incubation, materials were removed and the cells were\nwashed 2× with DPBS followed by 3 × 5 minute incubations with heparin (0.5 mg/mL in DPBS), and finally rinsed\nand the cells were transferred to Eppendorf tubes. The suspended cells were centrifuged to pellets and then\nresuspended in 100 µL Annexin V binding buffer. Then 5 µL of Annexin V was added to each Eppendorf, followed\nby 1 µL of PI. The cells were then incubated in a 37 ° C water bath for 15 minutes in the dark. After incubation,\nflow cytometry data was acquired monitoring the FITC channel (for Annexin V staining) and the PI channel."}, "HeLa cells [7]": {"system": "HeLa cells", "format": "cell-based", "method": "Figures S10. Influence of the degree of polymerization or “m” on cellular uptake as quantified by flow cytometry. All data are […] with respect to the fluorophore. 20 15 10 Conc.&(μM)& […] 5 […] 0 […] Figures S11. Concentration dependence of cellular uptake as quantified by flow cytometry. All data are referenced to vehicle […] Concentration of all materials is with respect to the fluorophore. SVI. Live-cell confocal microscopy. HeLa cells were plated on glass-bottom 24-well plates at a cell density of 90,000 cells per well 18 hrs prior to treatment with the compound of interest. The medium was removed and then replaced with medium lacking phenol red (Gibco Life Tech., cat# 31053-028) to minimize background fluorescence. […] respect to fluorophore) were added to the wells and the plates were incubated for 30 min at 37 °C. The medium was then removed and the cells were rinsed 2× with DPBS, and then fresh medium (phenol red- free) was added to each well. Live cells were imaged on an Olympus FV1000 confocal microscope with a chamber at 37 ° C under 5% CO2 via a Z-stack analysis (set to 1 μm slices) using identical instrument settings for each image and a 40× or 100x objective. S14 (also on this page, place not known: 31053 -028) […] Normalized Mean Fluorescence […]"}, "[8]": {"system": "mitochondrial membrane potential in HeLa cells", "test": "JC-1 mitochondrial integrity (membrane potential) assay", "format": "cell-based", "conditions": "JC-1 assay, relative to vehicle (DPBS)-treated cells"}}, "note": "NorAha = not defined here"}
{"molecule": "GSGSG", "values": [{"measurement": "Cell penetration of GSGSG (in words)", "setting": "cells", "value": "does not penetrate cells"}]}
{"molecule": "NorAhaKLAKLAKKLAKLAK-NH2 [KLA polymer (m ∼ 5)]", "values": [{"measurement": "LD50", "setting": "HeLa cells [1]", "value": 12.5, "unit": "µM"}]}
{"molecule": "GSGSG56-b-OEG28 [GSGSG polymer]", "values": [{"measurement": "diameter by DLS", "setting": "[2]", "value": "< 6", "unit": "nm"}, {"measurement": "TEM images compared with buffer (DPBS) alone", "setting": "[3]", "value": "indistinguishable"}]}
{"molecule": "K(Flu)KLAKLAKKLAKLAK-NH2 [KLA peptide]", "values": [{"measurement": "Cellular uptake: fluorescence signal of treated HeLa cells by flow cytometry (in words)", "setting": "HeLa cells [4]", "value": "indistinguishable from that of the vehicle control"}, {"measurement": "Cytotoxicity (in words)", "setting": "HeLa cells [1]", "value": "no cytotoxicity was detected"}, {"measurement": "Proteolytic degradation by trypsin (RP-HPLC before and after, in words)", "setting": "trypsin", "value": "completely degraded into fragments"}, {"measurement": "Proteolytic degradation by pronase (RP-HPLC before and after, in words)", "setting": "[5]", "value": "completely degraded into fragments"}, {"measurement": "Cell penetration of KLA (in words)", "setting": "cells; sub-millimolar concentrations", "value": "does not penetrate cells at sub-millimolar concentrations"}]}
{"molecule": "CN[C@@H]1C[C@H]2O[C@@](C)([C@@H]1OC)n1c3ccccc3c3c4c(c5c6ccccc6n2c5c31)C(=O)NC4", "note": "[Staurosporine]", "values": [{"measurement": "Propidium iodide staining, shift of cell population (in words)", "setting": "HeLa cells [6]", "value": "no shift"}]}
{"molecule": "NorAhaKLAKLAKKLAKLAK-NH2 [KLA polymer (m ∼ 15)]", "values": [{"measurement": "LD50", "setting": "HeLa cells [1]", "value": 30, "unit": "µM"}]}
{"molecule": "NorAhaGSGSGKK-NH2 [GSGSGKK polymer]", "values": [{"measurement": "diameter by DLS", "setting": "[2]", "value": "< 6", "unit": "nm"}, {"measurement": "TEM images compared with buffer (DPBS) alone", "setting": "[3]", "value": "indistinguishable"}, {"measurement": "Internalization and localization by live-cell confocal microscopy (in words)", "setting": "HeLa cells [7]", "value": "diffuse and punctate fluorescence"}]}
{"molecule": "C[S+](C)[O-]", "note": "[DMSO]", "values": [{"measurement": "Propidium iodide staining, increase in necrotic cells", "setting": "HeLa cells [6]; 10% DMSO added 5 hr prior to analysis", "value": "~40", "unit": "fold increase"}]}
{"molecule": "NorAhaKLAKLAK-NH2 (NorAha-KLAKLAK-NH2; reading uncertain; also: polymerized by ROMP, about 10 repeats on polymer backbone) [KLAfragment]", "values": [{"measurement": "Mitochondrial integrity of treated cells (in words)", "setting": "[8]", "value": "unaffected"}, {"measurement": "Internalization and localization by live-cell confocal microscopy (in words)", "setting": "HeLa cells [7]", "value": "mixture of diffuse and punctate fluorescence"}, {"measurement": "Cytotoxicity (in words)", "setting": "HeLa cells [1]", "value": "negligible toxicity"}]}
{"molecule": "NorAhaKLAKLAKKLAKLAK-NH2 [KLA polymer (m ∼ 10)]", "values": [{"measurement": "Propidium iodide staining, shift of cell population (in words)", "setting": "HeLa cells [6]", "value": "no shift"}, {"measurement": "Internalization and localization by live-cell confocal microscopy (in words)", "setting": "HeLa cells [7]", "value": "diffuse and punctate fluorescence"}, {"measurement": "LD50", "setting": "HeLa cells [1]", "value": 25, "unit": "µM"}]}
{"molecule": "GSGSGK53-b-OEG20 [GSGSGK Polymer (m ~ 60)]", "values": [{"measurement": "Aggregation of deprotected polymer in DPBS by dynamic light scattering (in words)", "setting": "[2]; DPBS, deprotected polymer", "value": "did not aggregate in DPBS"}]}
